One may read the IC50 as the midpoint of a concentration-inhibition curve. A low value points to inhibition by little substance.

8 compounds from BindingDB's records for doi:10.1016/j.chembiol.2016.11.007 (University of Connecticut, 2016) can be followed below.

Structures are written as SMILES.

Holding throughout (assay): DHFR Inhibition Assay
The target in test [1] is T1, Dihydrofolate reductase (Staphylococcus aureus, UniProt Q4H3Y3).
T1 sequence (Q4H3Y3 whole entry): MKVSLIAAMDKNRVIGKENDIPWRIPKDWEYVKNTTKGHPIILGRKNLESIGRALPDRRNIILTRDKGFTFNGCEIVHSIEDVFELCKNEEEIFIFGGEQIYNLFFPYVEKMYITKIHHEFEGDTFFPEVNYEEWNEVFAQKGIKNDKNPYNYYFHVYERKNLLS

The target in test [2] is Dihydrofolate reductase type 1 from Tn4003 (Staphylococcus aureus, UniProt P13955).
Sequence of Dihydrofolate reductase type 1 from Tn4003 (P13955 whole entry): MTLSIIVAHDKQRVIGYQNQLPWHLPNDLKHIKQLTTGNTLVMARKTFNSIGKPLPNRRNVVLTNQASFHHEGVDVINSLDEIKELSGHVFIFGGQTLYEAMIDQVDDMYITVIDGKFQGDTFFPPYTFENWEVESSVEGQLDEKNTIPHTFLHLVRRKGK
The target in test [3] is T2, Dihydrofolate reductase (Staphylococcus aureus, UniProt C7C2U7).
T2 sequence (C7C2U7 whole entry): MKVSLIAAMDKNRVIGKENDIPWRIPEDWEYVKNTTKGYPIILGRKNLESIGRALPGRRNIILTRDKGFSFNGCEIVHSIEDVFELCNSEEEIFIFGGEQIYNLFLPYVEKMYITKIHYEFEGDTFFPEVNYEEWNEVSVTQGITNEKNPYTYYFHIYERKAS

Test [4] concerns the target Dihydrofolate reductase (Staphylococcus aureus, UniProt P0A017).

Sequence of Dihydrofolate reductase (Staphylococcus aureus, UniProt P0A017) (P0A017 whole entry): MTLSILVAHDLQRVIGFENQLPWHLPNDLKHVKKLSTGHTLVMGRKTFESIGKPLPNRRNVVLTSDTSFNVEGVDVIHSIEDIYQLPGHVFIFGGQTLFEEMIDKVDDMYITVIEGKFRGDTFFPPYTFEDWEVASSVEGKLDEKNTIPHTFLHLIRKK

`CCc1nc(N)nc(N)c1C#CCc1cc(OC)cc(-c2ccc(C(=O)O)cc2)c1` [UCP1175]: the IC50 on Dihydrofolate reductase [1] was 1400 nM; in test [2], 980 nM; against Dihydrofolate reductase [3], 170 nM.
For `CCc1nc(N)nc(N)c1C#CCc1cc(OC)c(OC)c(-c2ccncc2)c1` [UCP1039] the same measures were 450 nM, 360 nM and 22 nM.
Turning to `CCc1nc(N)nc(N)c1C#C[C@H](C)c1cc(OC)cc(-c2ccc(C(=O)O)cc2)c1` [UCP1173], in test [2], the midpoint of inhibition, the IC50, lay at 270 nM.
Still for that read-out and setting: next, `CCc1nc(N)nc(N)c1C#C[C@@H](C)c1cc(-c2ccc(C(=O)O)cc2)ccc1OC` [UCP1164]: 8800 nM.
With `CCc1nc(N)nc(N)c1C#CC(C)c1cc2c(c(-c3ccc(C(=O)O)cc3)c1)OCO2` (stereo unspecified) [UCP1191], the IC50 on Dihydrofolate reductase [1] was determined as 87 nM; at Dihydrofolate reductase [4], 10 nM; in test [2], 320 nM; against Dihydrofolate reductase [3], 41 nM.
On the same counts, the results for `CCc1nc(N)nc(N)c1C#C[C@@H](C)c1cc2c(c(-c3ccc(C(=O)O)cc3)c1)OCO2` [UCP1205] are 159 nM, 18 nM, 340 nM and 100 nM.
In test [2], `CCc1nc(N)nc(N)c1C#C[C@@H](C)c1cc(OC)cc(-c2ccc(C(=O)O)cc2)c1` [UCP1172] came in with an IC50 of 410 nM. In other words, the sub-micromolar range.
For the compound `CCc1nc(N)nc(N)c1C#C[C@H](C)c1cc2c(c(-c3ccc(C(=O)O)cc3)c1)OCO2` [UCP1206], the half-maximal inhibitory concentration (IC50) was determined as 190 nM against Dihydrofolate reductase [1], 17 nM at Dihydrofolate reductase [4], 180 nM in test [2] and 54 nM on Dihydrofolate reductase [3].
